Measured values from ChEMBL document CHEMBL5126660, “Sesquiterpenoids from Seriphidium transiliense and Their Melanogenic Activity” (2022).
Active and inactive are the calls of the source. The rule behind the calls is not given here.

Legend:
[1] = system: B16; test: Induction of melanogenesis in mouse B16 cells assessed as increase in intracellular melanin content at 50 uM incubated for 49 hrs by NaOH lysis based microplate reader assay; assay type: functional
[2] = system: B16; test: Induction of melanogenesis in mouse B16 cells assessed as upregulation of TRP-1 protein expression at 50 uM incubated for 48 hrs by Western blot analysis; assay type: functional, cell-based
[3] = system: B16; test: Induction of melanogenesis in mouse B16 cells assessed as upregulation of MITF protein expression at 50 uM incubated for 48 hrs by Western blot analysis; assay type: functional, cell-based
[4] = system: B16; test: Induction of melanogenesis in mouse B16 cells assessed as upregulation of TYR protein expression at 50 uM incubated for 48 hrs by Western blot analysis; assay type: functional, cell-based
[5] = system: B16; test: Induction of melanogenesis in mouse B16 cells assessed as upregulation of TRP-2 protein expression at 50 uM incubated for 48 hrs by Western blot analysis; assay type: functional, cell-based
[6] = system: HaCaT; test: Inhibition of JAK/STAT signaling pathway in human HaCaT cells assessed as downregulation of IFN-gamma induced JAK1 protein expression at 1 to 50 uM incubated for 48 hrs by Western blot analysis; assay type: cell-based; conditions: dose 1-50 µM
[7] = system: B16; test: Induction of melanogenesis in mouse B16 cells assessed as upregulation of TRP-1 mRNA expression at 50 uM by RT-PCR analysis; assay type: functional, cell-based
[8] = system: B16; test: Induction of melanogenesis in mouse B16 cells assessed as upregulation of TRP-2 mRNA expression at 50 uM by RT-PCR analysis; assay type: functional, cell-based
[9] = system: B16; test: Induction of melanogenesis in mouse B16 cells assessed as increase in intracellular tyrosinase activity at 50 uM incubated for 48 hrs by L-DOPA oxidation method; assay type: functional, cell-based
[10] = system: B16; test: Induction of melanogenesis in mouse B16 cells assessed as upregulation of TYR mRNA expression at 50 uM by RT-PCR analysis; assay type: functional, cell-based
[11] = system: B16; test: Induction of melanogenesis in mouse B16 cells assessed as increase in intracellular melanin content at 1 to 50 uM incubated for 49 hrs by NaOH lysis based microplate reader assay; assay type: functional, cell-based; conditions: dose 1-50 µM, DDE = dose-dependent effect
[12] = system: HaCaT; test: Inhibition of JAK/STAT signaling pathway in human HaCaT cells assessed as downregulation of IFN-gamma induced CXCL10 protein level at 1 to 50 uM incubated for 24 hrs by ELISA; assay type: cell-based; conditions: dose 1-50 µM, DDE = dose-dependent effect
[13] = system: HaCaT; test: Inhibition of JAK/STAT signaling pathway in human HaCaT cells assessed as downregulation of IFN-gamma induced JAK2 protein expression at 50 uM incubated for 48 hrs by Western blot analysis; assay type: cell-based
[14] = system: HaCaT; test: Inhibition of JAK/STAT signaling pathway in human HaCaT cells assessed as downregulation of IFN-gamma induced CXCL10 mRNA expression at 1 to 50 uM by RT-PCR analysis; assay type: cell-based; conditions: dose 1-50 µM, DDE = dose-dependent effect
[15] = system: B16; test: Induction of melanogenesis in mouse B16 cells assessed as upregulation of MITF mRNA expression at 50 uM by RT-PCR analysis; assay type: functional, cell-based
[16] = system: HaCaT; test: Inhibition of JAK/STAT signaling pathway in human HaCaT cells assessed as downregulation of IFN-gamma induced p-STAT protein expression at 10 to 50 uM incubated for 48 hrs by Western blot analysis; assay type: cell-based; conditions: dose 10-50 µM

Compound: C=C1CC[C@@H](O)[C@]2(C)C[C@H](OC(C)=O)[C@H]3[C@H](C)C(=O)O[C@@H]3[C@@]12O
- Activity [1]: Active

Compound: C=C1CC[C@@H](O)[C@]2(C)CC[C@@H]([C@@H](C)C(=O)OC)[C@H](O)[C@]12O
- Activity [2]: Active
- Activity [3]: Active
- Activity [4]: Active
- Activity [5]: Active
- inhibition [6]: Active
- Activity [7]: Active
- Activity [8]: Active
- Activity [9]: Active
- Activity [10]: Active
- Activity [11]: Dde
- inhibition [12]: Dde
- inhibition [13]: Active
- Activity [1]: 153%
- inhibition [14]: Dde
- Activity [15]: Active
- inhibition [16]: Active

Compound: C=C1CC[C@@H](O)[C@]2(C)CC[C@@H]([C@@H](C)C(=O)OC)[C@H](O)[C@@]12O
- Activity [1]: Active

Compound: COc1c2occc2cc2ccc(=O)oc12 [METHOXSALEN]
- Activity [1]: 138%

Compound: C=C1CC[C@H](O)[C@]2(C)CC[C@H]3[C@@H](C)C(=O)O[C@@H]3[C@@]12O
- Activity [1]: Active
